Source: patent US6365135B1, “Use of amino phenol amide derivatives as depigmentation agents” (L'Oreal, priority 1997, dated 2002)

Tested on: co-culture of keratinocytes and melanocytes
Assay: Depigmenting activity test: inhibition of melanogenesis on a co-culture of keratinocytes and melanocytes
Type: cell-based
Settings: for Class (maximum depigmenting activity): inhibition of melanogenesis relative to the control; for IC50: co-culture of keratinocytes and melanocytes, read-out: IC50 (concentration for which a 50% inhibition of melanogenesis is observed)
Description: This test corresponds to the one described in patent FR 2,734,825 filed by the Applicant, as well as in the article by R. Schmidt, P. Krien and M. Régnier, Anal. Biochem., 235 (2), 113-18, (1996). This test is thus carried out on a co-culture of keratinocytes and melanocytes.
For each test compound, the IC50 value, which corresponds to the micromolar concentration (μM) for which a 50% inhibition of melanogenesis is observed, is determined.
Moreover, a class is given to each of these compounds as regards their maximum depigmenting activity:
class 1: 10 to 30% inhibition of melanogenesis relative to the control (same experiment without test compound);
class 2: 30 to 60% inhibition of melanogenesis relative to the control (same experiment without test compound);
class 3: 60 to 100% inhibition of melanogenesis relative to the control (same experiment without test compound).

Structure (SMILES)	Class (maximum depigmenting activity) (500 μM)	IC50 [µM]	Class (maximum depigmenting activity) (100 μM)
O=c1cc(CO)occ1O [Kojic acid]	2 to 500 μM (class 2: 30 to 60% inhibition of melanogenesis relative to the control (same experiment without test compound))	500	
CCCCCCCCCCCC(=O)Oc1ccc(NC(C)=O)cc1 [Lauroyl [4-(N-acetylamino)] phenol, Lauroyl [4-(N-acetylamino)]phenol]		> 100	2 to 100 μM (class 2: 30 to 60% inhibition of melanogenesis relative to the control (same experiment without test compound))
